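Growth conditions: 96-well plates. Treatment: test compound, 48 hours, 5 concentrations. Analysis: linear interpolation between bracketing concentrations; unreached endpoints set to highest concentration. GI50 is the concentration that inhibits growth by half.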 Active and inactive are the calls of the source. Rule as the data show it: active = GI50 up to about 1.1 µM and inactive = higher.
Columns and labels:
Assay in all cases: NCI-60 cell line screen, 48 h
786-0 = test system: 786-0
A498 = test system: A498
COLO 205 = test system: COLO 205
HL-60 = test system: HL-60
HT-29 = test system: HT-29
KM12 = test system: KM12
NCI-H522 = test system: NCI-H522
OVCAR-4 = test system: OVCAR-4
OVCAR-5 = test system: OVCAR-5
OVCAR-8 = test system: OVCAR-8
SF-539 = test system: SF-539
SK-OV-3 = test system: SK-OV-3
SNB-19 = test system: SNB-19
SNB-75 = test system: SNB-75
SW-620 = test system: SW-620
TK-10 = test system: TK-10
U-251 = test system: U-251
SR = test system: SR

Measured: GI50

O=C(c1ccccc1)c1c(-c2ccccc2)sc2nc3ccccc3nc12
inactive: 786-0 38.1 µM | A498 > 100 µM | COLO 205 > 100 µM | HL-60 > 100 µM | HT-29 > 100 µM | KM12 > 100 µM | NCI-H522 > 100 µM | OVCAR-4 37.8 µM | OVCAR-5 > 100 µM | OVCAR-8 > 100 µM | SF-539 47.9 µM | SK-OV-3 > 100 µM | SNB-19 55 µM | SNB-75 32.8 µM | SW-620 > 100 µM | TK-10 > 100 µM | U-251 > 100 µM

COc1ccccc1/C=C(\C#N)c1ccccc1
inactive: 786-0 20 µM | A498 24.2 µM | COLO 205 15.6 µM | HT-29 29.9 µM | KM12 18.5 µM | NCI-H522 16.6 µM | OVCAR-4 30.2 µM | OVCAR-5 > 100 µM | OVCAR-8 50.5 µM | SF-539 34.8 µM | SK-OV-3 26.7 µM | SNB-75 25.9 µM | SR 15.6 µM | SW-620 23.7 µM | TK-10 40.7 µM | U-251 24.6 µM

Cc1cc([N+](=O)[O-])ccc1Nc1cccc(Cl)c1C
inactive: 786-0 14 µM | A498 15.3 µM | COLO 205 17 µM | HL-60 18.2 µM | HT-29 17.6 µM | KM12 16 µM | NCI-H522 16.1 µM | OVCAR-4 16.5 µM | OVCAR-5 14.7 µM | OVCAR-8 15.1 µM | SK-OV-3 24.3 µM | SNB-19 19.1 µM | SNB-75 19.2 µM | SR 14.7 µM | SW-620 24.3 µM | TK-10 14.8 µM | U-251 16.3 µM

O=C1c2ccccc2-c2cccc3ccc(Cc4ccccc4)c1c23
inactive: 786-0 > 100 µM | COLO 205 > 100 µM | HL-60 > 100 µM | HT-29 > 100 µM | KM12 > 100 µM | NCI-H522 > 100 µM | OVCAR-4 84.3 µM | OVCAR-5 > 100 µM | OVCAR-8 > 100 µM | SF-539 > 100 µM | SNB-19 > 100 µM | SNB-75 6.53 µM | SW-620 > 100 µM | TK-10 > 100 µM | U-251 > 100 µM

CN(C)CCCNc1ccnc2c([N+](=O)[O-])cccc12
inactive: 786-0 22.2 µM | COLO 205 2.37 µM | HL-60 > 10 µM | HT-29 3.56 µM | KM12 24.9 µM | NCI-H522 17.1 µM | OVCAR-4 15.2 µM | OVCAR-5 > 10 µM | OVCAR-8 20.7 µM | SF-539 20.7 µM | SK-OV-3 3.85 µM | SNB-19 23.4 µM | SR 27.9 µM | SW-620 15.2 µM | TK-10 > 100 µM | U-251 30.2 µM

O=c1cc2ccccc2nn1-c1ccccc1Cl
inactive: 786-0 > 100 µM | A498 > 100 µM | COLO 205 > 100 µM | HT-29 > 100 µM | KM12 > 100 µM | OVCAR-4 > 100 µM | OVCAR-5 > 100 µM | OVCAR-8 > 100 µM | SF-539 > 100 µM | SK-OV-3 > 100 µM | SNB-19 > 100 µM | SNB-75 59.6 µM | SW-620 > 100 µM | TK-10 > 100 µM | U-251 > 100 µM

ClCCCCOC1CCCCO1 (centres undefined)
inactive: 786-0 > 100 µM | A498 > 100 µM | COLO 205 > 100 µM | HL-60 > 100 µM | HT-29 > 100 µM | KM12 > 100 µM | NCI-H522 > 100 µM | OVCAR-4 > 100 µM | OVCAR-5 > 100 µM | OVCAR-8 > 100 µM | SF-539 > 100 µM | SK-OV-3 > 100 µM | SNB-19 > 100 µM | SNB-75 > 100 µM | SW-620 > 100 µM | TK-10 > 100 µM | U-251 > 100 µM

CCCN1C(=O)C/C(=C\C(C)=O)Nc2ccccc21
inactive: 786-0 > 100 µM | COLO 205 86.3 µM | HT-29 > 100 µM | KM12 > 100 µM | NCI-H522 > 100 µM | OVCAR-4 > 100 µM | OVCAR-5 > 100 µM | OVCAR-8 > 100 µM | SF-539 > 100 µM | SK-OV-3 > 100 µM | SNB-19 > 100 µM | SNB-75 > 100 µM | SR > 100 µM | SW-620 > 100 µM | TK-10 > 100 µM | U-251 > 100 µM

N#C/N=C1\NCCC(=O)N1CCc1c[nH]c2ccccc12
inactive: 786-0 > 100 µM | COLO 205 > 100 µM | HL-60 > 100 µM | HT-29 > 100 µM | KM12 > 100 µM | OVCAR-4 > 100 µM | OVCAR-8 > 100 µM | SF-539 > 100 µM | SK-OV-3 > 100 µM | SNB-19 > 100 µM | SNB-75 > 100 µM | SR > 100 µM | SW-620 > 100 µM | TK-10 > 100 µM

C[n+]1c2ccccc2c(/C=N\NS(=O)(=O)c2ccc(O)c(C(=O)O)c2)c2ccccc21
inactive: 786-0 34.4 µM | A498 37.6 µM | HL-60 22.1 µM | HT-29 35.3 µM | KM12 60.3 µM | NCI-H522 30.6 µM | OVCAR-4 > 100 µM | OVCAR-5 > 100 µM | OVCAR-8 43.7 µM | SF-539 63.4 µM | SK-OV-3 > 100 µM | SNB-19 67.9 µM | SNB-75 34.2 µM | SW-620 41.1 µM | TK-10 > 100 µM | U-251 94 µM

O=C(c1ccccc1)c1oc2ccc(Br)cc2c1-c1cnn(-c2ccccc2)c1
inactive: 786-0 > 100 µM | COLO 205 > 100 µM | HL-60 > 100 µM | HT-29 > 100 µM | KM12 > 100 µM | NCI-H522 7.48 µM | OVCAR-4 > 100 µM | OVCAR-5 > 100 µM | OVCAR-8 > 10 µM | SK-OV-3 > 100 µM | SNB-19 > 100 µM | SNB-75 > 100 µM | SW-620 > 10 µM | TK-10 > 10 µM

COc1ccc2c(c1)OCCCN(C)OC2c1ccccc1 (centres undefined)
inactive: 786-0 > 100 µM | COLO 205 > 100 µM | HT-29 > 100 µM | KM12 > 100 µM | OVCAR-5 > 100 µM | OVCAR-8 > 100 µM | SF-539 > 100 µM | SK-OV-3 > 100 µM | SNB-19 > 100 µM | SNB-75 > 100 µM | SR > 100 µM | SW-620 > 100 µM | TK-10 > 100 µM | U-251 > 100 µM

N=C(N)NS(=O)(=O)c1ccc(Nc2c3ccccc3nc3c(C(=O)Nc4ccc(S(N)(=O)=O)cc4)cccc23)cc1
inactive: 786-0 > 100 µM | A498 > 100 µM | COLO 205 > 100 µM | HL-60 88.1 µM | HT-29 > 100 µM | KM12 > 100 µM | NCI-H522 15.8 µM | OVCAR-4 > 100 µM | OVCAR-5 > 100 µM | OVCAR-8 > 100 µM | SF-539 52.5 µM | SK-OV-3 > 100 µM | SNB-19 37 µM | SNB-75 42.1 µM | SW-620 > 100 µM | TK-10 > 100 µM | U-251 94.2 µM

— ChEMBL document CHEMBL1201862, “PubChem BioAssay data set” (2004)
